Results from publication PMC10295546, “Synthesis, Cytotoxicity and Molecular Docking of New Hybrid Compounds by Combination of Curcumin with Oleanolic Acid” (Biomedicines, 2023).

Assays:
Assay type in all cases: cell-based, human
[1] = tested on: HeLaWT cells; test: MTT cell viability assay, HeLaWT
Description: (§1) The assay was performed as previously described.

[2] = tested on: HT-29 cells; test: MTT cell viability assay, HT-29; settings: for IC50: MTT
Description: as §1

[3] = tested on: MCF7 cells; test: MTT cell viability assay, MCF7; settings: for IC50: MTT
Description: as §1

[4] = tested on: MCF-12A cells; test: MTT cell viability assay, non-tumorigenic MCF-12A
Description: as §1

[5] = tested on: HeLaWT, HT-29, MCF7 and MCF-12A cells; test: MTT cell viability assay, statement for all studied cells; settings: for IC50: Homo sapiens, all studied cells, applied concentration range, time not specified
Description: as §1

[6] = tested on: HeLaWT cells; test: Cell cycle analysis (propidium iodide flow cytometry), HeLaWT
Description: (§2) To analyze the influence of the chosen compounds on the cell cycle, a flow cytometry analysis using propidium iodide was performed as previously described. The HT-29, MCF7 and HeLaWT cells (3 × 10^5 cells) were incubated overnight to reach sedimentation and then were treated with 0.5 and 1 × IC50 of KS1, KS2, KS5, KS6, KS7 and KS8, or Doxorubicin (positive control). Cell cycle analysis was performed after incubation for 24 h. Then, cells were harvested, washed twice with phosphate-buffered saline (PBS), and incubated with a solution of 1% saponin, 50 µg/mL propidium iodide and 10 mg/mL of RNase A (Sigma-Aldrich, Schnelldorf, Germany) in PBS for 1 h at 37 °C. DNA content was analyzed by flow cytometry at the […] wavelength of 488 nm using FACScan (Becton–Dickinson, Franklin Lakes, NJ, USA). The relative proportions of cells in the G1/G0, S and G2/M phases of the cell cycle were determined from the obtained data. Three separate experiments in triplicates were performed for each cell line.

[7] = tested on: HT-29 cells; test: Cell cycle analysis (propidium iodide flow cytometry), HT-29
Description: as §2

[8] = tested on: MCF7 cells; test: Cell cycle analysis (propidium iodide flow cytometry), MCF7; settings: MCF7, both applied concentrations (0.5 × IC50 and 1 × IC50), 24 h
Description: as §2

[9] = tested on: HeLaWT cells; test: TUNEL assay, HeLaWT
Description: (§3) To determine the percentage of apoptotic cells, the TUNEL assay was performed as described elsewhere. TUNEL staining for the detection and quantification of apoptosis at the single-cell level was performed using an in situ cell death detection kit (Roche, Mannheim, Germany) according to the manufacturer’s protocol. Briefly, HT-29, HeLaWT and MCF7 cells (5 × 10^5/well) were seeded into 6-well plates and cultured overnight before exposure to different concentrations of tested compounds for 24 h. For TUNEL labeling, cells were harvested, fixed, permeabilized and labeled with the TUNEL reaction mixture (enzyme and label solutions) for 1 h at 37 °C in the dark. Negative controls were created by omitting the terminal deoxynucleotidyl enzyme and adding the same volume of the label solution. The cells were analyzed using a FACScan flow cytometer (Becton–Dickinson, Franklin Lakes, NJ, USA).

[10] = tested on: HT-29 cells; test: TUNEL assay, HT-29; settings: HT-29, 1 × IC50, 24 h, non-statistically significant
Description: as §3

[11] = Homo sapiens, MCF-12A, 24 h, MTT
[12] = Homo sapiens, MCF-12A, 48 h, MTT
[13] = Homo sapiens, MCF-12A, 72 h, MTT
[14] = Homo sapiens, non-cancerous MCF-12A cells, applied concentration range, time not specified

| Compound | IC50 ([1]; Homo sapiens, 24 h) [µM] | IC50 ([1]; Homo sapiens, 48 h) [µM] | IC50 ([1]; Homo sapiens, 72 h) [µM] | IC50 ([2]; Homo sapiens, HT-29, 24 h) [µM] | IC50 ([2]; Homo sapiens, HT-29, 48 h) [µM] | IC50 ([2]; Homo sapiens, HT-29, 72 h) [µM] | IC50 ([3]; Homo sapiens, MCF7, 24 h) [µM] | IC50 ([3]; Homo sapiens, MCF7, 48 h) [µM] | IC50 ([3]; Homo sapiens, MCF7, 72 h) [µM] | IC50 [4, 11] [µM] | IC50 [4, 12] [µM] | IC50 [4, 13] [µM] | IC50 [4, 14] [µM] | IC50 [5] [µM] | other results |
| --- | --- | --- | --- | --- | --- | --- | --- | --- | --- | --- | --- | --- | --- | --- | --- |
| CC1(C)CCC2(C(=O)O)CCC3(C)C(=CCC4C5(C)CCC(OC(=O)CCC(=O)O)C(C)(C)C5CCC43C)C2C1 (stereo not drawn) [KS1, 4-{[(3 β )-28-hydroksy-28-oxoolean-12-en-3-yl]oxy}-4-oxobutanoic acid] |  |  |  |  |  |  |  |  |  |  |  |  |  |  | IC50 ([1]; 24 h): > 100 µM; IC50 ([1]; 48 h): > 100 µM; IC50 ([1]; 72 h): > 100 µM; cytotoxic activity (in words) ([1]; summary of Table 1): inactive; IC50 ([2]; HT-29, 24 h): > 100 µM; IC50 ([2]; HT-29, 48 h): > 100 µM; IC50 ([2]; HT-29, 72 h): > 100 µM; cytotoxic activity (in words) ([2]; HT-29, MTT, summary of Table 1): inactive; IC50 ([3]; MCF7, 24 h): > 100 µM; IC50 ([3]; MCF7, 48 h): 34.4 ± 2.2 µM; IC50 ([3]; MCF7, 72 h): 22.5 ± 0.9 µM; cytotoxic activity (in words) ([3]; MCF7, MTT, summary of Table 1): quite active; IC50 ([4]; MCF-12A, 24 h, MTT): > 100 µM; IC50 ([4]; MCF-12A, 48 h, MTT): 47.7 ± 2.1 µM; IC50 ([4]; MCF-12A, 72 h, MTT): 42.1 ± 1.9 µM |
| COC(=O)C12CCC(C)(C)CC1C1=CCC3C4(C)CCC(OC(=O)CCC(=O)Oc5ccc(/C=C/c6cc(/C=C/c7ccc(O)c(OC)c7)no6)cc5OC)C(C)(C)C4CCC3(C)C1(C)CC2 (stereo not shown) [KS7, Curcumin isoxazole mono-oleanoyl hydrogen succinate methyl ester] | > 100 | > 100 | > 100 | > 100 | > 100 | > 100 | > 100 | > 100 | > 100 | > 100 | > 100 | > 100 | > 100 | > 100 | cytotoxic activity (in words) ([5]; all cell lines, MTT, summary of Table 1): inactive |
| COc1cc(/C=C/C(=O)CC(=O)/C=C/c2ccc(O)c(OC)c2)ccc1O [KS2, curcumin] | 57.2 ± 2.2 | 28.7 ± 1.1 | 16.2 ± 0.65 | 25.2 ± 1.3 | 13.9 ± 0.7 | 11.1 ± 0.6 | 15.6 ± 0.8 | 14.6 ± 0.6 | 7.5 ± 0.4 | 75.6 ± 2.5 | 46.4 ± 2 | 42 ± 1.6 |  |  | effect on cell cycle phases ([6]; 0.5 × IC50, 24 h): a decrease in the G0/G1 phase, and an increase in the G2/M phase; effect on cell cycle phases ([6]; 1 × IC50, 24 h): a decrease in the number of cells in the G0/G1 phase; increase of apoptotic cells (cell cycle analysis) ([6]; 1 × IC50, 24 h): up to 10%; increase of apoptotic cells (cell cycle analysis) ([7]; HT-29, 24 h, in comparison to control untreated cells): 7%; effect on cell cycle phases ([7]; HT-29, both applied concentrations (0.5 × IC50 and 1 × IC50), 24 h): a decrease in the G0/G1 phase, and an increase in the G2/M phase; effect on cell cycle phases [8]: a decrease in the G0/G1 phase, and an increase in the G2/M phase; number of apoptotic cells (TUNEL) ([9]; 0.5 × IC50, 24 h): 30%; number of apoptotic cells (TUNEL) ([9]; 1 × IC50, 24 h): 80%; increase of apoptosis (TUNEL) [10]: 10% |
| COc1cc(/C=C/c2cc(/C=C/c3ccc(OC(=O)CCC(=O)OC4CCC5(C)C(CCC6(C)C5CC=C5C7CC(C)(C)CCC7(C(=O)O)CCC56C)C4(C)C)c(OC)c3)on2)ccc1O (stereo not shown) [KS5, Curcumin isoxazole mono-oleanoyl hydrogen succinate] | 70.1 ± 3.5 | 51.2 ± 2.5 | 27.3 ± 1.4 | 29 ± 1.4 | 23.2 ± 1.2 | 21.5 ± 1.1 | 80.8 ± 4 | 45.6 ± 2.3 | 37.8 ± 1.9 | 83.2 ± 3.1 | 68.7 ± 2.4 | 49.9 ± 1.6 |  |  |  |
| COc1cc(/C=C/c2cc(/C=C/c3ccc(OC(=O)CCC(=O)OC4CCC5(C)C(CCC6(C)C5CC=C5C7CC(C)(C)CCC7(C(=O)O)CCC56C)C4(C)C)c(OC)c3)[nH]n2)ccc1O (stereo not shown) [KS6, Curcumin pyrazole mono-oleanoyl hydrogen succinate] | 77.1 ± 3.8 | 45 ± 2.3 | 25.9 ± 1.3 | 94.4 ± 4.7 | 51.9 ± 2.6 | 26 ± 1.3 | 69.1 ± 3.4 | 25.9 ± 1.3 | 20.2 ± 1 | > 100 | 54.3 ± 2.7 | 44.6 ± 1.9 |  |  |  |
| COC(=O)C12CCC(C)(C)CC1C1=CCC3C4(C)CCC(OC(=O)CCC(=O)Oc5ccc(/C=C/C(O)=C/C(=O)/C=C/c6ccc(O)c(OC)c6)cc5OC)C(C)(C)C4CCC3(C)C1(C)CC2 (stereo not shown) [KS3, Curcumin mono-oleanoyl hydrogen succinate methyl ester] | > 100 | > 100 | > 100 | > 100 | > 100 | > 100 | > 100 | > 100 | > 100 | > 100 | > 100 | > 100 | > 100 | > 100 |  |
| COc1cc(/C=C/C(=O)/C=C(O)/C=C/c2ccc(OC(=O)CCC(=O)OC3CCC4(C)C(CCC5(C)C4CC=C4C6CC(C)(C)CCC6(C(=O)O)CCC45C)C3(C)C)c(OC)c2)ccc1O (stereo not shown) [KS4, Curcumin mono-oleanoyl hydrogen succinate] | > 100 | > 100 | > 100 | > 100 | > 100 | > 100 | > 100 | > 100 | > 100 | > 100 | > 100 | > 100 | > 100 | > 100 |  |
| COC(=O)C12CCC(C)(C)CC1C1=CCC3C4(C)CCC(OC(=O)CCC(=O)Oc5ccc(/C=C/c6cc(/C=C/c7ccc(O)c(OC)c7)n[nH]6)cc5OC)C(C)(C)C4CCC3(C)C1(C)CC2 (stereo not shown) [KS8, Curcumin pyrazole mono-oleanoyl hydrogen succinate methyl ester] | 53.4 ± 2.7 | 36.9 ± 1.8 | 25.6 ± 1.2 | 20.6 ± 1 | 17.9 ± 0.9 | 17.3 ± 0.9 | 44.3 ± 2.2 | 33.2 ± 1.7 | 29.9 ± 1.5 | 62.7 ± 3.1 | 43.4 ± 2.2 | 42.3 ± 2.5 |  |  |  |
